Consider 55 molecules from patent US20030203959A1, “Novel modulators of potassium channels” (4SC AG, priority 2002, published 2003).

BK channels, cloned hSlo (α-hSlo and β-bSlo) in CHO cells, sequence (Q12791 whole entry): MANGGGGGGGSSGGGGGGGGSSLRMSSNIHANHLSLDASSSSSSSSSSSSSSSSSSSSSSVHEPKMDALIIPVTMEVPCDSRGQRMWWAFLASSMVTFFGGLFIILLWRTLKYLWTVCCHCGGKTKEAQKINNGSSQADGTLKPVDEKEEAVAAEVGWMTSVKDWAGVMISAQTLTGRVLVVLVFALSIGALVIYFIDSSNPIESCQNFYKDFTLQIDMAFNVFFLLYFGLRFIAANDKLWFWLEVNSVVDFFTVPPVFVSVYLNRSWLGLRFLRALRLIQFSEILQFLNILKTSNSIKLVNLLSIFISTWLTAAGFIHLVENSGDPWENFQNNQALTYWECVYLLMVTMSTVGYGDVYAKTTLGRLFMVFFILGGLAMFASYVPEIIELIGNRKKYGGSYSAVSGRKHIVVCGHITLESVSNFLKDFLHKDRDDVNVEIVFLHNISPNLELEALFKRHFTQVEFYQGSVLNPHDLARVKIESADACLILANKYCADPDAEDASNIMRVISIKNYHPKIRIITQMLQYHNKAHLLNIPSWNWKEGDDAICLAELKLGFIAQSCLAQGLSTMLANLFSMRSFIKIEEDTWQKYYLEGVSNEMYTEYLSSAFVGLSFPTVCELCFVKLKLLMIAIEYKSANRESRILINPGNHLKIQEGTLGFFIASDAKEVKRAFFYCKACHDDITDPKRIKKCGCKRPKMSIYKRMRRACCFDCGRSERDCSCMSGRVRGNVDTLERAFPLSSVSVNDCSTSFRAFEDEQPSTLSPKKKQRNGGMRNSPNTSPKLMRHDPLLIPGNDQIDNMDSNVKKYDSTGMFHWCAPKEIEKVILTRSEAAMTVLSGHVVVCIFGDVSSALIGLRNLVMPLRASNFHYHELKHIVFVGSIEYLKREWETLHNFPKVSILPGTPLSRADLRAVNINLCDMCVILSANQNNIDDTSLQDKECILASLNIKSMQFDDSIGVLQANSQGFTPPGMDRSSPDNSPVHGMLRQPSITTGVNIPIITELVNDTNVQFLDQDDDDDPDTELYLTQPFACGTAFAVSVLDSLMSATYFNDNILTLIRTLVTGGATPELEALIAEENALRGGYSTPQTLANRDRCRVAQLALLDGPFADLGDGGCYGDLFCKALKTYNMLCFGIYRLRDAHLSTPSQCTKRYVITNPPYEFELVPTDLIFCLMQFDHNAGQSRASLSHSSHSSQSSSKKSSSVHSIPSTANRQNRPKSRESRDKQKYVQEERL
BK channels, cloned hSlo (α-hSlo and β-bSlo) in CHO cells, sequence (Q28067 whole entry partner): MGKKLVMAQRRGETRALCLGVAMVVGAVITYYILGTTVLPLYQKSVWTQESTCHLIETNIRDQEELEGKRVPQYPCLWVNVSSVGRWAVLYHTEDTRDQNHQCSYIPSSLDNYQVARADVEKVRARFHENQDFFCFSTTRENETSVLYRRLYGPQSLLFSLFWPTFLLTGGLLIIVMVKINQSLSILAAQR
BK currents, cloned α-hSlo and β-bSlo in CHO cells, sequence (Q12791 whole entry): as the sequence (Q12791 whole entry) above
BK currents, cloned α-hSlo and β-bSlo in CHO cells, sequence (Q28067 whole entry partner): as the sequence (Q28067 whole entry partner) above

One assay concerns the target BK channels, cloned hSlo (α-hSlo and β-bSlo) in CHO cells (Homo sapiens, UniProt Q12791). In words: Em-Assay (voltage sensitive dye DiBAC(4)3 fluorescence, membrane potential). Format: cell-based. The settings on record: ratio of the compound effect (50 μM) compared to the maximal effect of NS004 (25 or 50 μM); hSlo transfected CHO cells. An excerpt: The large conductance, voltage dependent and Ca^2+-activated potassium channel BK is a potassium selective ion channel and belongs to the subfamily of KCa channels. Four BK alpha-subunits form a functional channel that can be regulated by intracellular Ca^2+ concentration, membrane voltage, and other mechanisms like phosphorylation states or beta subunits. To test the biological activity of the compounds, we applied two different techniques, a fluorescence based assay using a voltage sensitive dye (Em-Assay) as well as exploiting electrophysiological methods.
CHO cells permanently transfected with cloned hSlo (α-hSlo and β-bSlo), yielding typical BK potassium currents (Zhou et al., Pflügers Arch., 436: 725-734 (1998), were used for the evaluation of compound activity. Activation or inhibition of BK channels in these cells leads to a change of the electrochemical gradient causing a hyperpolarized or depolarised membrane potential, respectively.
To determine changes in the membrane potential of the cells we used the voltage sensitive dye DiBAC(4)3 (Molecular Probes) in a kinetic assay system using a fluorescent plate reader (Manning and Sontheimer, J. Neurosci. Meth., 91: 73-81 (1999). The anionic bis-oxonol DiBAC(4)3 is a voltage sensitive dye which partitions from the extracellular environment into the cell where it reversibly binds to intracellular proteins, a kinetic process depending on the membrane potential of the cell. At depolarised potentials (i.e. at a reduced K^+ efflux due to blocked K^+ channels) the dye accumulates in the cell leading to an increased fluorescence intensity, due to its increased fluorescence if bound to cellular proteins. At hyperpolarized potentials (i.e. at an increased K^+ efflux due to the opening of K^+ channels), the dye partitions out of the cell causing a decreased fluorescence intensity.
hSlo transfected CHO cells where maintained in DMEM supplemented with 10% FCS, 250 μg/ml Geneticin, 100 μg/ml Hygromycin, 1×HT-Supplement, and 1×Non-essential Amino Acids and cultured in a humidified CO2 incubator. After trypsination, cells where plated with a density of 5×10^4 cells per well on a clear 96-well plate and incubated for 24 h. Cells where washed once with PBS, once with PBS containing 20 mM HEPES (adjusted to pH 7.4 with NaOH) and 2 μM DiBAC(4)3 (DPBS-DiMAC solution). 180 μl of the dPBS-DiBAC solution was then added to the cells and the plate incubated for 30-60 min at 37° C. During this time the dye could partition into the cells and reach a certain steady-state distribution, depending on the resting membrane potential. Test and reference compounds were stored as DMSO stock solutions and diluted in dPBS-DiBAC solution to the desired concentration.
Fluorescence intensity (Ex.: 485 nm/Em: 520 nm) of each well was detected in the plate reader (Fluostar, BMG) every 60 seconds. After recording the baseline fluorescence for 7 minutes, 20 μl test and reference compounds were added and the fluorescence intensity was detected for additional 15 minutes. Background was subtracted, data values were normalized and expressed as a change in fluorescence intensity against time. The change in fluorescence intensity caused by the test compounds was evaluated compared to the effect of the reference compound NS004, and the ratio was determined (see Table I).
Take `FC(F)(F)Oc1ccc(-c2ccc3[nH]ccc3c2)cc1` [Compound 1]: the Em effect entry is on record as “++ (>1=++)”.
As to `CN(C)c1ccc(-c2ccc3[nH]ccc3c2)cc1` [Compound 2], the Em effect entry is reported as “+ (0-1=+)”.
Still for that read-out and setting: the entry for `Fc1ccc(-c2ccc3[nH]ccc3c2)c(F)c1` [Compound 3] is “++ (>1=++)”; for `FC(F)(F)c1ccc(-c2ccc3[nH]ccc3c2)cc1` [Compound 4] it is “++ (>1=++)”; for `COc1ccccc1-c1ccc2[nH]ccc2c1` [Compound 5] it is “++ (>1=++)”.
Still for that read-out and setting: next, `Clc1ccc(-c2cccc3cc[nH]c23)s1` [Compound 6]: “+ (0-1=+)”; `COc1ccccc1-c1cccc2cc[nH]c12` [Compound 7]: “+ (0-1=+)”.
Same read-out and setting: next, `FC(F)(F)c1ccc(-c2cccc3cc[nH]c23)cc1` [Compound 8]: “+ (0-1=+)”.
With `Clc1ccccc1-c1cccc2cc[nH]c12` [Compound 9], the Em effect entry is “+ (0-1=+)”.
Same read-out and setting: the entry for `Fc1ccc(-c2cccc3cc[nH]c23)c(F)c1` [Compound 10] is “+ (0-1=+)”; for `CN(C)c1ccc(-c2cccc3cc[nH]c23)cc1` [Compound 11] it is “++ (>1=++)”; for `Clc1ccc(-c2ccc3cc[nH]c3c2)s1` [Compound 13] it is “+ (0-1=+)”.
Still for that read-out and setting: next, `FC(F)(F)c1ccc(-c2ccc3cc[nH]c3c2)cc1` [Compound 14]: “+ (0-1=+)”; `Clc1ccccc1-c1ccc2cc[nH]c2c1` [Compound 15]: “+ (0-1=+)”; `Fc1ccc(-c2ccc3cc[nH]c3c2)c(F)c1` [Compound 16]: “+ (0-1=+)”.
On the same count and under the same terms, the entry for `CN(C)c1ccc(-c2ccc3cc[nH]c3c2)cc1` [Compound 17] is “++ (>1=++)”.
Consider `COc1ccccc1-c1ccc2cc[nH]c2c1` [Compound 19], for which the Em effect entry was “+ (0-1=+)”.
Still for that read-out and setting: the entry for `FC(F)(F)c1cc(-c2cccc3[nH]ccc23)cc(C(F)(F)F)c1` [Compound 20] is “+ (0-1=+)”.
On the same count and under the same terms, next, `Fc1cc(-c2cccc3[nH]ccc23)ccc1-c1ccccc1` [Compound 21]: “+ (0-1=+)”; `Clc1ccc(-c2cccc3[nH]ccc23)s1` [Compound 22]: “+ (0-1=+)”; `c1cc(-c2ccsc2)c2cc[nH]c2c1` [Compound 23]: “+ (0-1=+)”.
Same read-out and setting: next, `COc1ccccc1-c1cccc2[nH]ccc12` [Compound 24]: “+ (0-1=+)”; `FC(F)(F)c1ccc(-c2cccc3[nH]ccc23)cc1` [Compound 25]: “+ (0-1=+)”; `Clc1ccccc1-c1cccc2[nH]ccc12` [Compound 26]: “+ (0-1=+)”.
Take `FC(F)(F)Oc1ccc(-c2cccc3[nH]ccc23)cc1` [Compound 28]: the Em effect result is “+ (0-1=+)”.
Still for that read-out and setting: the entry for `CS(=O)(=O)c1ccc(-c2ccc3[nH]ccc3c2)cc1` [Compound 29] is “+ (0-1=+)”; for `O=Cc1ccccc1-c1ccc2[nH]ccc2c1` [Compound 31] it is “+ (0-1=+)”.
For `CC(C)(C)c1ccc(-c2ccc3[nH]ccc3c2)cc1` [Compound 32], the Em effect result was “+ (0-1=+)”.
On to `O=[N+]([O-])c1ccccc1-c1ccc2[nH]ccc2c1` [Compound 33], for which the Em effect result is given as “+ (0-1=+)”.
For `FC(F)(F)Oc1cccc(-c2ccc3[nH]ccc3c2)c1` [Compound 34], the Em effect entry is listed as “+ (0-1=+)”.
Still for that read-out and setting: the entry for `COc1ccc(-c2ccc3cc[nH]c3c2)cn1` [Compound 35] is “+ (0-1=+)”; for `c1ccc(COc2ccc(-c3cccc4[nH]ccc34)cc2)cc1` [Compound 36] it is “+ (0-1=+)”.
Still for that read-out and setting: the entry for `Fc1cccc(-c2ccc3cc[nH]c3c2)c1` [Compound 37] is “+ (0-1=+)”; for `FC(F)(F)Oc1cccc(-c2cccc3cc[nH]c23)c1` [Compound 38] it is “+ (0-1=+)”; for `CC(C)(C)c1ccc(-c2cccc3[nH]ccc23)cc1` [Compound 39] it is “++ (>1=++)”.
Still for that read-out and setting: next, `COc1ccc(-c2cccc3[nH]ccc23)cc1` [Compound 42]: “+ (0-1=+)”; `c1cc2cc(-c3ccc4[nH]ccc4c3)ccc2[nH]1` [Compound 43]: “+ (0-1=+)”.
On to `c1ccc2c(-c3ccc4[nH]ccc4c3)cccc2c1` [Compound 44], for which the Em effect result is reported as “++ (>1=++)”.
The same measure, in the same setting: next, `Clc1ccc(-c2ccc3[nH]ccc3c2)cc1` [Compound 46]: “++ (>1=++)”; `c1cc(-c2ccc3[nH]ccc3c2)c2cc[nH]c2c1` [Compound 47]: “+ (0-1=+)”.
Still for that read-out and setting: next, `COc1ccc(-c2ccc3[nH]ccc3c2)c(OC)c1` [Compound 48]: “++ (>1=++)”; `CC(=O)c1cccc(-c2ccc3[nH]ccc3c2)c1` [Compound 49]: “+ (0-1=+)”; `c1cc2cc(-c3ccc4c(c3)OCO4)ccc2[nH]1` [Compound 50]: “++ (>1=++)”.
Same read-out and setting: next, `COc1c(C)cc(-c2ccc3[nH]ccc3c2)cc1C` [Compound 51]: “++ (>1=++)”; `c1ccc(-c2ccc3[nH]ccc3c2)nc1` [Compound 52]: “+ (0-1=+)”; `c1cc2cc(-c3ccc4cc[nH]c4c3)ccc2[nH]1` [Compound 53]: “++ (>1=++)”.
With `COc1ccc(-c2ccc3[nH]ccc3c2)cc1` [Compound 54], the Em effect entry was “++ (>1=++)”.
Still for that read-out and setting: the entry for `Fc1ccc(-c2cccc3[nH]ccc23)c(F)c1` [Compound 55] is “+ (0-1=+)”.
Still for that read-out and setting: the entry for `COc1cccc(-c2cccc3[nH]ccc23)c1` [Compound 56] is “+ (0-1=+)”.
On to `c1ccc(Oc2ccc(-c3cccc4[nH]ccc34)cc2)cc1` [Compound 57], for which the Em effect entry is listed as “+ (0-1=+)”.
As to `Clc1ccc(-c2ccc3cc[nH]c3c2)cc1` [Compound 58], the Em effect entry was “+ (0-1=+)”.
For the molecule `c1ccc(-c2ccc3[nH]ccc3c2)cc1` [Compound 59], the Em effect entry is listed as “+ (0-1=+)”.
Same read-out and setting: next, `c1ccc(-c2cccc(-c3ccc4cc[nH]c4c3)c2)cc1` [Compound 60]: “+ (0-1=+)”.
Consider `FC(F)(F)c1cc(-c2ccc3cc[nH]c3c2)cc(C(F)(F)F)c1` [Compound 61], for which the Em effect entry is reported as “+ (0-1=+)”.
Same read-out and setting: next, `CC(C)(C)c1ccc(-c2ccc3cc[nH]c3c2)cc1` [Compound 62]: “+ (0-1=+)”.

The next assay deals with BK currents, cloned α-hSlo and β-bSlo in CHO cells (Homo sapiens, UniProt Q12791). Kind of assay: Electrophysiological studies (whole-cell patch-clamp, BK currents). Format: cell-based. The settings on record: ratio of current increase after application of compound (20 μM) relative to control current before application, steady-state. How it is done:
CHO cells permanently transfected with cloned α-hSlo and β-bSlo were maintained as described above and used for electrophysiologial characterisation. The whole-cell configuration of the patch-clamp technique was used to determine the effect of modulators on BK currents in these cells. The cell line expressing functional BK currents (Zhou et al., Pflügers Arch 436, p.725 (1998)) were plated onto glass cover slips with a density of 1-5×10^4 cells/cover slip, incubated (37° C., 5% CO2) and used for patch-clamp experiments within 24-48 h. Cells were bathed in mammalian ringer solutions containing (in mM): 160 NaCl, 4.5 KCl, 2CaCl2, 1 MgCl2, 10 HEPES, adjusted to pH 7.4, 290-310 mOsim. The internal pipette solution contained (in mM): 160 KCl, 2CaCl2, 1 MgCl2, 10 HEPES, EGTA was added to reach a free [Ca^2+]internal=1×10 ^−6M, adjusted to pH 7.2, 290-310 mOsm.
Borosilicate pipettes with a resistance of 2-3 MΩ were filled with the internal solution and mounted on an appropriate holder. Prior to measurements a recording chamber was mounted onto the cell-plated cover slips and the cells were perfused with a simple syringe driven perfusion system. Compounds were added in the final concentration ([…]) to the bath solution using the same system. An EPC-9 patch-clamp amplifier with Pulse and PulseFit software (HEKA) was used to record and analyze currents.
After addition of the compounds to the bath solution their modulating effect was determined by the increase or decrease of specific BK currents after reaching steady-state relative to the BK current before application of drugs (see Table II).
With `FC(F)(F)Oc1ccc(-c2ccc3[nH]ccc3c2)cc1` [Compound 1], the “Effect (ratio of current increase)” value is “++ (>1,1-1.2=++)”.
Still for that read-out and setting: the entry for `CN(C)c1ccc(-c2ccc3[nH]ccc3c2)cc1` [Compound 2] is “+ (1-1.1=+)”.
On the same count and under the same terms, next, `Fc1ccc(-c2ccc3[nH]ccc3c2)c(F)c1` [Compound 3]: “+++ (>1.2=+++)”.
The same measure, in the same setting: next, `FC(F)(F)c1ccc(-c2ccc3[nH]ccc3c2)cc1` [Compound 4]: “++ (>1,1-1.2=++)”; `COc1ccccc1-c1ccc2[nH]ccc2c1` [Compound 5]: “++ (>1,1-1.2=++)”.
For `Clc1ccc(-c2cccc3[nH]ccc23)s1` [Compound 22], the “Effect (ratio of current increase)” value was “++ (>1,1-1.2=++)”.
